pIC50: −log10 of the molar value.
Key:
[1] = test system: testosterone production from H295R cells; experiment: cells; assay type: cell-based, human; details: for inhibition of testosterone production (in words) / pIC50: H295R cells; for pIC50: Homo sapiens, NCI-H295R, 48 hours incubation, read-out: Testosterone IC50; for Selectivity ratio for aldosterone compared with testosterone: testosterone IC50 (H295R) relative to aldosterone IC50 (hcyp11B2)
Procedure: (§1) The human adrenocarcinoma cell line H295R is used to monitor the production of testosterone and estradiol in vitro. […] Various concentrations of test compounds in 1:3 dilution increments are added to the cell culture medium. After incubation for 48 hours, 100 μl culture medium is collected and d5-estradiol and d3-testosterone are added as ISs for estradiol and testosterone respectively.
(§2) An equal volume of sodium carbonate/sodium bicarbonate buffer (0.5 mol/L, pH 9.4) is added to the samples followed by freshly prepared dansyl chloride solution (50 μl, 20 mg/mL). Samples are mixed and incubated for 60 min at 60° C. The samples are then extracted 3× with EtOAc ([…]) using the FX, combining the organic layers in a new deep-well 96-well plate. The solvent is then dried in a GeneVac HT-4 or under nitrogen. The FX is used to reconstitute the samples in 50% MeOH/water ([…]) and the plates are heat-sealed.
(§3) A 40 μl aliquot of the sample is injected and a gradient from 20-100% MeOH in 0.95 min is initiated. An ABI QTRAP 4000 tandem mass spectrometer is used for MS/MS analysis in the positive ion mode. […] These peaks are separately integrated to give the peak areas. The area ratios of testosterone/IS and estradiol/IS are used to determine testosterone and estradiol concentrations by comparison to their respective standard curves. The detection limits for testosterone and estradiol are 0.1 ng/mL and 0.01 ng/mL respectively.

[2] = test system: estradiol production from H295R cells; experiment: cells; assay type: cell-based, human; details: for inhibition of estradiol production (in words) / pIC50: H295R cells; for pIC50: Homo sapiens, NCI-H295R, 48 hours incubation, read-out: Estradiol IC50; for Selectivity ratio for aldosterone compared with estradiol: estradiol IC50 (H295R) relative to aldosterone IC50 (hcyp11B2)
Procedure: as §1, §2, §3

[3] = target: T1, cynomolgus monkey cyp11B2 (Macaca fascicularis, UniProt A0A2K5UPL9); experiment: Cynomolgus Monkey Aldosterone Inhibition Assay; assay type: cell-based; details: V79 cells expressing cynomolgus monkey cyp11B2; n=1; read-out: relative IC50, cynomolgus monkey aldosterone inhibition assay
T1 construct: expressed in transfected cells; host or cells: Chinese hamster fibroblast V79 cells
T1 sequence (A0A2K5UPL9 1-503): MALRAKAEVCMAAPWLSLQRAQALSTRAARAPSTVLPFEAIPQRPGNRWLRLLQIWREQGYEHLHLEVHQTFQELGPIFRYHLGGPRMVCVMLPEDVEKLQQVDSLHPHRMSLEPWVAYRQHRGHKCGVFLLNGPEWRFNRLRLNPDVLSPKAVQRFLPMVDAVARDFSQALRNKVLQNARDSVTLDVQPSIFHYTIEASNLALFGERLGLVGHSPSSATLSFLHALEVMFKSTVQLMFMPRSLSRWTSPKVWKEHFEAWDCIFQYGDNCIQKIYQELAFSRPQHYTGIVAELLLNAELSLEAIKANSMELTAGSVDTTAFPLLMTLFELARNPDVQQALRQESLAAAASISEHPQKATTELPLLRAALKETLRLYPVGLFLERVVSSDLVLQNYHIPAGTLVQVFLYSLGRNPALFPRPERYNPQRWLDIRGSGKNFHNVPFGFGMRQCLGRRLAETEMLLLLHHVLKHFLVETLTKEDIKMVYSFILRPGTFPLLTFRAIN
Procedure: Chinese hamster fibroblast cells (V79) constitutively expressing cynomolgus monkey cyp11B2 is established by transfection with a mammalian expression vector harboring the cynomolgus monkey cyp11B2 cDNA. This cell line was used to measure the activity of compounds in inhibiting […] from cynomolgus monkey enzyme. Cell culture condition and aldosterone detection method is performed following the same protocol described in the “Aldosterone inhibition assay”.

[4] = test system: aldosterone production in rats; experiment: Inhibition of Aldosterone Synthase in Rats (rat sodium-deficiency diet model); assay type: in vivo; details: for % Inhibition 3 hrs / % Inhibition 6 hrs: inhibition of aldosterone vs vehicle; for % Inhibition 3 hrs / Aldosterone (pg/mL) 3 hrs: 3 hrs post oral dose; for % Inhibition 3 hrs / % Inhibition 6 hrs / Aldosterone (pg/mL) 3 hrs / Aldosterone (pg/mL) 6 hrs: Example 1 10.0 mg/kg, Example 49 30.0 mg/kg, Fadrozole 1.0 mg/kg; for % Inhibition 6 hrs / Aldosterone (pg/mL) 6 hrs: 6 hrs post oral dose; for effect on aldosterone production in vivo (in words) / Aldosterone (pg/mL) 3 hrs / Aldosterone (pg/mL) 6 hrs: rat Na-deficient diet model; for effect on aldosterone production in vivo (in words): summary of Table 18; for Aldosterone (pg/mL) 3 hrs / Aldosterone (pg/mL) 6 hrs: serum
Procedure: The effect of compounds on aldosterone production in rats is assessed using the rat sodium-deficiency diet model. […] At 3 hours post dose rats are bled (˜0.5 mL) from the ocular orbit under isoflurane anesthesia. At 6 hours post-dose the rats are euthanized with CO2 and bled by cardiac puncture. Blood samples are clotted at least 30 minutes and serum is prepared and stored at approximately −80° C. until assayed. Aldosterone, steroids, and compound exposure are analyzed by mass spectroscopy.

CC1(C)C[C@H](c2ccc(C#N)cc2)c2cn[nH]c21 (single isomer, unassigned) [Example 1]
inhibition of testosterone production (in words) [1]: weak inhibition | pIC50 [1]: < 4.52 | Selectivity ratio for aldosterone compared with testosterone [1]: >6000 | inhibition of estradiol production (in words) [2]: weak inhibition | pIC50 [2]: 4.88 | Selectivity ratio for aldosterone compared with estradiol [2]: 2640 | pIC50 [3]: 8.61 | % Inhibition 3 hrs [4]: 48% | % Inhibition 6 hrs [4]: 46% | effect on aldosterone production in vivo (in words) [4]: inhibit aldosterone production in vivo | Aldosterone (pg/mL) 3 hrs [4]: 973 pg/mL | Aldosterone (pg/mL) 6 hrs [4]: 1380 pg/mL

CC1(C)CC(c2ccc(C#N)cc2F)c2cn[nH]c21 (single isomer, unassigned; isomer 1) [Example 49, 4-(6,6-Dimethyl-4,5-dihydro-1H-cyclopenta[c]pyrazol-4-yl)-3-fluoro-benzonitrile, isomer 1]
inhibition of testosterone production (in words) [1]: weak inhibition | pIC50 [1]: < 4.52 | Selectivity ratio for aldosterone compared with testosterone [1]: >4285 | inhibition of estradiol production (in words) [2]: weak inhibition | pIC50 [2]: 4.66 | Selectivity ratio for aldosterone compared with estradiol [2]: 3143 | pIC50 [3]: 8.39 | % Inhibition 3 hrs [4]: 46% | % Inhibition 6 hrs [4]: 33% | effect on aldosterone production in vivo (in words) [4]: inhibit aldosterone production in vivo | Aldosterone (pg/mL) 3 hrs [4]: 1008 pg/mL | Aldosterone (pg/mL) 6 hrs [4]: 1704 pg/mL
